Test results taken from patent publication US20020032316A1, “Hapten-carrier conjugates for use in drug-abuse therapy and methods for preparation of same” (priority 1995, published 2002).
Read-outs that look alike come from different tables or passages of the source.

Legend:
[1] = cited from earlier work
[2] = test system: antibodies in the rat sera binding to PS-5.4 HEL; conditions: sera of rats immunized with cocaine-rCTB conjugate
anti-cocaine antisera = experiment: Specificity competition ELISA: drugs inhibiting binding of antibodies to cocaine-HEL; conditions: pool of antisera of mice immunized with cocaine-CTB PS-5.53; varying concentrations
[3] = cited from earlier work; for peak plasma concentration: in vivo; for plasma half life: Henningfield (1995)
rats = experiment: Discrimination of cocaine from saline, 2-lever procedure; format: in vivo; conditions: Rattus norvegicus, ip; rats trained on 10 mg/kg cocaine i.p., cumulative dosing; read-out: ED50±95% C.I. for cocaine-appropriate responses
Source text: After cocaine injections are given, the animals are required to press one of the levers (drug-appropriate lever) 10 times (FR 10) to obtain a food pellet; upon saline injections, they are required to press the other lever (saline-appropriate lever) 10 times to obtain a food pellet. When animals have learned to discriminate cocaine from saline, at least 90% of the total responses are made on the appropriate lever for several consecutive days. In order to incorporate a cumulative dosing procedure during later substitution test sessions, training sessions are made up of multiple components, each lasting for 10 min or until 10 FRs are completed, whichever occurred first.
Following training, substitution test sessions with different doses of cocaine (0.3-17.8 mg/kg) are conducted twice weekly, with training sessions on intervening days. Drug substitution test sessions consisted of four 10 min components, each preceded by a 15 min time-out period. During substitution tests, completion of 10 responses on either lever produce a food pellet. Incremental doses of cocaine are injected at the beginning of each of the 4 time-out periods. Overlapping ranges of cumulative doses are studied on different test days, permitting a seven-point cumulative dose-response curve to be determined in a single week. […]

mice = conditions: for total levels of cocaine in the brains of control mice: mouse, in vivo
[4] = Cocaine LD50 and time-to-death in immunized and naive mice; conditions: BALB/c, mouse, in vivo
Protocol: In these experiments, cocaine-immunized and control carrier-immunized mice are injected i.v. with cocaine at doses around the previously defined LD50. Ten mice are used at each point, and the data is analyzed using a Cochran-Mantel-Haenzel Chi-squared test.
In addition, a failure time model is used to analyze the time-to-death induced by cocaine. The extent to which the anti-cocaine antibodies increase both (a) the dose of cocaine required for lethality and (b) the time-to-death are measures of efficacy in this model. These provide a rapid and rigorous test of the in vivo efficacy of the antibodies.
The efficacy of therapeutic vaccination against cocaine was assessed by determining the lethal dose of cocaine (LD50) in immunized and naive animals. […] Each of the mice was bled at day 34 and serum antibody titers and competition with cocaine were assessed. […] For the LD50 experiment, 4-6 mice were used per group and each group was carefully matched for antibody titer and apparent affinity for free cocaine.

[5] = test system: antibodies in the sera binding to PS-55 HEL; experiment: Competition ELISA with free nicotine or cotinine; parameters: species or system mouse; conditions: sera of mice injected with PS-55 BSA
Protocol: To determine whether the induced antibodies are capable of recognizing the free nicotine molecule, a competition ELISA was performed. In this assay, free nicotine competes with PS-55 HEL coated to ELISA plates for the binding of antibodies in the sera. If the antibodies that have a high affinity for nicotine comprise most of the antibodies binding to the PS-55 HEL, then low concentrations of nicotine are capable of effectively inhibiting the antibody binding. For 3 out of 4 mice described above which were injected with PS-55 BSA, antibody binding to PS-55 HEL was inhibited by free nicotine (FIG. 25). Note that the presence of antibody specific for the conjugate alone would not be expected to interfere with the action of the anti-nicotine antibody.

[6] = in vivo; cited from earlier work
[7] = pre-incubation with 50-fold excess unlabeled nicotine
Protocol: Immune sera from the above experiment was incubated with [^3H]-nicotine and protein-G-conjugated Sepharose beads (Gammabind-G Sepharose, Pharmacia), which bind IgG in the sera samples. The antibody-bound [^3H]-nicotine was isolated by centrifugation of the beads and was detected by scintillation counting of the beads.

[8] = HPLC analysis of methyl ester hydrolysis of succinylated norcocaine; conditions: 25° C.
[9] = test system: eukaryotic cells expressing ganglioside GM1; format: cell-based

## C[C@]12N[C@H](Cc3ccccc31)c1ccccc12 [MK-801]
[1]; alone
  increase of cocaine LD50: 1.3 fold
[1]; combined with propanolol
  increase of cocaine LD50: 1.4 fold

## CN1[C@H]2CC[C@@H]1[C@@H](C(=O)O)[C@@H](OC(=O)c1ccccc1)C2 [benzoylecgonine, 3β-(Benzoyloxy)-8-methyl-8-azabicyclo[3.2.1]octane-2β-carboxylic acid]
[2]
  competition of rat sera: none of the sera tested are able to be competed by benzoylecgonine
anti-cocaine antisera
  inhibition of binding of antibodies to cocaine-HEL: at high concentrations

## COC(=O)[C@H]1[C@@H](OC(=O)c2ccccc2)C[C@@H]2CC[C@H]1N2C [cocaine, 3β-(Benzoyloxy)-8-methyl-8-azabicyclo[3.2.1]octane-2β-carboxylic acid methyl ester]
[3]; in addicts, Ambre 1991, Cone 1995, Cone 1989
  published peak plasma levels: 0.3 to 1.5 µg/mL
[3]
  peak plasma concentration: 0.3 to 1 µg/mL
rats
  ED50: 2.14 ± 0.2 mg/kg
mice; after intranasal administration
  time of peak cocaine levels: 2 to 5 min
mice; after intravenous injection
  time of peak cocaine levels: 0.25 min
mice
  total levels of cocaine in the brains of control mice: 1538 ng/g
mice; iv
  total levels of cocaine in the brains of control mice: 2260 ng/g
[4]; ip
  LD50: 20 mg/kg
[4]; iv
  LD50: 3 mg/kg

## CN1C(=O)CCC1c1cccnc1 (stereo not shown) [cotinine, N-Methyl-2-(3-pyridyl)-5-pyrrolidone]
[3]
  plasma half life: 19 h
[5]
  competition for antibodies in the sera: cannot compete with antibodies in any of the sera except at very high concentrations

## CNCCCN1c2ccccc2CCc2ccccc21 [desipramine]
[6]
  cocaine abstinence rate following treatment: ≤ 70%

## CN1CCCC1c1cccnc1 (stereo not shown) [nicotine, 1-Methyl-2-(3-pyridyl)pyrrolidine]
[3]
  plasma half life: approximately two
  peak plasma concentration: 0.025 to 0.05 µg/mL
[7]
  inhibition of [^3H]-nicotine binding to antibodies: completely inhibited the binding

## COC(=O)[C@H]1[C@@H](OC(=O)c2ccccc2)C[C@@H]2CC[C@H]1N2C(=O)CCC(=O)O [succinylated norcocaine, 3β-(Benzoyloxy)-8-succinoyl-8-azabicyclo[3.2.1]octane-2β-carboxylic acid methyl ester]
[8]; pH 6
  time for 5% degradation: 1.30 years
[8]; pH 8
  time for 5% degradation: 10.96 days

## rCTB
[9]
  binding to cells (flow cytometry): bound to eukaryotic cells expressing ganglioside GM1
